Assay results: PMC4266920, “Exploring the correlation between the sequence composition of the nucleotide binding G5 loop of the FeoB GTPase domain (NFeoB) and intrinsic rate of GDP release” (Bioscience Reports, 2014)

What was measured:
Assay type in all cases: binding
[1] = target: T1, EcNFeoB (GTPase domain of Escherichia coli FeoB) (Escherichia coli, UniProt P33650, G153A); assay: isothermal titration calorimetry, one-site model; conditions: read-out: Kd^** (μM) GDP
T1 construct: soluble N-terminal GTPase domain, residues 1-270; GST fusion (pGEX-4T-1) in E. coli BL21(DE3), GST removed by thrombin, size exclusion; an alternate S150A-TEV construct (TEV-cleaved) was also made
T1 sequence (P33650 1-270 G153A): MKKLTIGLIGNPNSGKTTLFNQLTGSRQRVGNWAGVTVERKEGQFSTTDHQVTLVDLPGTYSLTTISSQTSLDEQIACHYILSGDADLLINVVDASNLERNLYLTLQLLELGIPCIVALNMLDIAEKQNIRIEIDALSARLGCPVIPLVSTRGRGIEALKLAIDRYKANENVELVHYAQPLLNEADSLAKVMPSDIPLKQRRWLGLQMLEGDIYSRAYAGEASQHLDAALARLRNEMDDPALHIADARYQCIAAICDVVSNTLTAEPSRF
Text: (§1) isothermal titration calorimetry, one-site model on EcNFeoB (GTPase domain of Escherichia coli FeoB)

[2] = target: T2, EcNFeoB (GTPase domain of Escherichia coli FeoB) (Escherichia coli, UniProt P33650, R152A); assay: isothermal titration calorimetry, one-site model; conditions: read-out: Kd^** (μM) GDP
T2 construct: soluble N-terminal GTPase domain, residues 1-270; GST fusion (pGEX-4T-1) in E. coli BL21(DE3), GST removed by thrombin, size exclusion; an alternate S150A-TEV construct (TEV-cleaved) was also made
T2 sequence (P33650 1-270 R152A): T1 sequence (P33650 1-270 G153A)
Text: as §1

[3] = target: T3, EcNFeoB (GTPase domain of Escherichia coli FeoB) (Escherichia coli, UniProt P33650, R154A); assay: isothermal titration calorimetry, one-site model; conditions: read-out: Kd^** (μM) GDP
T3 construct: soluble N-terminal GTPase domain, residues 1-270; GST fusion (pGEX-4T-1) in E. coli BL21(DE3), GST removed by thrombin, size exclusion; an alternate S150A-TEV construct (TEV-cleaved) was also made
T3 sequence (P33650 1-270 R154A): T1 sequence (P33650 1-270 G153A)
Text: as §1

[4] = target: T4, EcNFeoB (GTPase domain of Escherichia coli FeoB) (Escherichia coli, UniProt P33650, S150A); assay: isothermal titration calorimetry, one-site model; conditions: read-out: Kd^** (μM) GDP
T4 construct: soluble N-terminal GTPase domain, residues 1-270; GST fusion (pGEX-4T-1) in E. coli BL21(DE3), GST removed by thrombin, size exclusion; an alternate S150A-TEV construct (TEV-cleaved) was also made
T4 sequence (P33650 1-270 S150A): T1 sequence (P33650 1-270 G153A)
Text: as §1

[5] = target: T5, EcNFeoB (GTPase domain of Escherichia coli FeoB) (Escherichia coli, UniProt P33650, T151A); assay: isothermal titration calorimetry, one-site model; conditions: read-out: Kd^** (μM) GDP
T5 construct: soluble N-terminal GTPase domain, residues 1-270; GST fusion (pGEX-4T-1) in E. coli BL21(DE3), GST removed by thrombin, size exclusion; an alternate S150A-TEV construct (TEV-cleaved) was also made
T5 sequence (P33650 1-270 T151A): T1 sequence (P33650 1-270 G153A)
Text: as §1

[6] = target: T1, EcNFeoB (GTPase domain of Escherichia coli FeoB); assay: stopped-flow fluorescence, koff/kon from kobs versus protein concentration; conditions: 20 mM Tris pH 8.0, 100 mM NaCl, 100 mM MgCl2, 20 °C; labelled compound (mant-GMPPNP; table heading prints GMPPNP)
Text: (§2) stopped-flow fluorescence, koff/kon from kobs versus protein concentration on EcNFeoB (GTPase domain of Escherichia coli FeoB)

[7] = target: T2, EcNFeoB (GTPase domain of Escherichia coli FeoB); assay: as above; conditions: 20 mM Tris pH 8.0, 100 mM NaCl, 100 mM MgCl2, 20 °C; labelled compound (mant-GMPPNP; table heading prints GMPPNP)
Text: as §2

[8] = target: T3, EcNFeoB (GTPase domain of Escherichia coli FeoB); assay: as above; conditions: 20 mM Tris pH 8.0, 100 mM NaCl, 100 mM MgCl2, 20 °C; labelled compound (mant-GMPPNP; table heading prints GMPPNP)
Text: as §2

[9] = target: T5, EcNFeoB (GTPase domain of Escherichia coli FeoB); assay: as above; conditions: 20 mM Tris pH 8.0, 100 mM NaCl, 100 mM MgCl2, 20 °C; labelled compound (mant-GMPPNP; table heading prints GMPPNP)
Text: as §2

Compound | Kd [1] | Kd [2] | Kd [3] | Kd [4] | Kd [5] | Kd [6] | Kd [7] | Kd [8] | Kd [9]
Nc1nc2c(ncn2[C@@H]2O[C@H](COP(=O)(O)OP(=O)(O)O)[C@@H](O)[C@H]2O)c(=O)[nH]1 [GDP] | 11 ± 2 µM | 8 ± 1 µM | 9 ± 2 µM | 2 ± 0.3 µM | 33 ± 4 µM | – | – | – | –
mant-GMPPNP | – | – | – | – | – | 17 µM | 23 µM | 43 µM | 27 µM
